According to ChEMBL document CHEMBL1127439, “Structure-activity relationship studies of central nervous system agents. 13. 4-[3-(Benzotriazol-1-yl)propyl]-1-(2-methoxyphenyl)piperazine, a new putative 5-HT1A receptor antagonist, and its analogs” (J Med Chem, 1994):

Assays:
Mus musculus [1] = assay: Effect on 8-OH-DPAT-induced hypothermia in mice (5 mg/kg) at intraperitoneal dosage of 8 mg/kg of compound after 30 mins; assay type: functional
Rattus norvegicus [2] = assay: Tested for the effect on 8-OH-DPAT-induced behavior in reserpine pretreated rat against forepaw treading at dosage of 4 mg/kg; assay type: functional
[3] = molecular target: Serotonin 2 (5-HT2) receptor (Rattus norvegicus, UniProt P30994+P08909+P14842); assay: Tested in vitro for receptor binding affinity against 5-hydroxytryptamine 2 receptor using radioligand [3H]ketanserin; assay type: protein assay
Mus musculus [4] = assay: Effect on body temperature in mice at intraperitoneal dosage of 8 mg/kg, (compound administered 30 min before the test) after 30 min; assay type: functional
Mus musculus [5] = assay: Effect on body temperature in mice at intraperitoneal dosage of 4 mg/kg, (compound administered 30 min before the test) after 60 min; assay type: functional
Rattus norvegicus [6] = assay: Tested for the effect on 8-OH-DPAT-induced lower lip retraction (LLR) in rat at dosage of 4 mg/kg; assay type: functional
Mus musculus [7] = assay: Effect on body temperature in mice at intraperitoneal dosage of 1 mg/kg, (compound administered 30 min before the test) after 75 min; assay type: functional
Rattus norvegicus [8] = assay: Tested for the effect on 8-OH-DPAT-induced behavior in reserpine pretreated rat against flat body posture at dosage of 8 mg/kg; assay type: functional
Rattus norvegicus [9] = assay: Tested for the effect on 8-OH-DPAT-induced behavior in reserpine pretreated rat against forepaw treading at dosage of 2 mg/kg; assay type: functional
Mus musculus [10] = assay: Effect on 8-OH-DPAT-induced hypothermia in mice (5 mg/kg) at intraperitoneal dosage of 1 mg/kg of compound after 30 mins; assay type: functional
Rattus norvegicus [11] = assay: Tested for the effect on 8-OH-DPAT-induced lower lip retraction (LLR) in rat at dosage of 8 mg/kg; assay type: functional
Rattus norvegicus [12] = species on record: Rattus norvegicus; assay: Selectivity is the ratio between Ki values of 5-HT2 and 5-HT1A
Rattus norvegicus [13] = assay: Tested for the induction of lower lip retraction (LLR) by the investigated compounds in rat at dosage of 4 mg/kg; assay type: functional
Mus musculus [14] = assay: Effect on 8-OH-DPAT-induced hypothermia in mice (5 mg/kg) at intraperitoneal dosage of 8 mg/kg of compound after 60 mins; assay type: functional
Rattus norvegicus [15] = assay: Tested for the effect on 8-OH-DPAT-induced behavior in reserpine pretreated rat against forepaw treading at dosage of 8 mg/kg; assay type: functional
Rattus norvegicus [16] = assay: Tested for the induction of lower lip retraction (LLR) by the investigated compounds in rat at dosage of 8 mg/kg; assay type: functional
Rattus norvegicus [17] = assay: Tested for the effect on 8-OH-DPAT-induced lower lip retraction (LLR) in rat at dosage of 16 mg/kg; assay type: functional
Mus musculus [18] = assay: Effect on body temperature in mice at intraperitoneal dosage of 1 mg/kg, (compound administered 30 min before the test) after 90 min; assay type: functional
Mus musculus [19] = assay: Effect on body temperature in mice at intraperitoneal dosage of 8 mg/kg, (compound administered 30 min before the test) after 60 min; assay type: functional
[20] = molecular target: T1, 5-hydroxytryptamine receptor 1A (Rattus norvegicus, UniProt P19327); assay: Tested in vitro for receptor binding affinity against 5-hydroxytryptamine 1A receptor using radioligand [3H]8-OH-DPAT
T1 sequence (P19327 whole entry): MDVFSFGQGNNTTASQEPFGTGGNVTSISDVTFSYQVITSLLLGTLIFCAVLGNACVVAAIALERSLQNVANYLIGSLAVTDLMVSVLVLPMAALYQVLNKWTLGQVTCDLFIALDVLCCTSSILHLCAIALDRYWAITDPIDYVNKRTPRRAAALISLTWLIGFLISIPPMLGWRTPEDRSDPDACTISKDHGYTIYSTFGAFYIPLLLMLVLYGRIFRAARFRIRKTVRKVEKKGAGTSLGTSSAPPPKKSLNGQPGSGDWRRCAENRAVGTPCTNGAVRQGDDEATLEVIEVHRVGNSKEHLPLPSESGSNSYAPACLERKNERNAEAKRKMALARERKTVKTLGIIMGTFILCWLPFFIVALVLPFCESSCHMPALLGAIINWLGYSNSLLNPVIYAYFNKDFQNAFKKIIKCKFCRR

Mus musculus [21] = assay: Effect on 8-OH-DPAT-induced hypothermia in mice (5 mg/kg) at intraperitoneal dosage of 2 mg/kg of compound after 15 mins; assay type: functional
Rattus norvegicus [22] = assay: Tested for the effect on 8-OH-DPAT-induced lower lip retraction (LLR) in rat at dosage of 2 mg/kg; assay type: functional
Mus musculus [23] = assay: Effect on 8-OH-DPAT-induced hypothermia in mice (5 mg/kg) at intraperitoneal dosage of 1 mg/kg of compound after 60 mins; assay type: functional
Mus musculus [24] = assay: Effect on 8-OH-DPAT-induced hypothermia in mice (5 mg/kg) at intraperitoneal dosage of 2 mg/kg of compound after 45 mins; assay type: functional
Mus musculus [25] = assay: Effect on 8-OH-DPAT-induced hypothermia in mice (5 mg/kg) at intraperitoneal dosage of 2 mg/kg of compound after 30 mins; assay type: functional
Mus musculus [26] = assay: Effect on 8-OH-DPAT-induced hypothermia in mice (5 mg/kg) at intraperitoneal dosage of 8 mg/kg of compound after 45 mins; assay type: functional
Mus musculus [27] = assay: Effect on body temperature in mice at intraperitoneal dosage of 2 mg/kg, (compound administered 30 min before the test) after 75 min; assay type: functional
Mus musculus [28] = assay: Effect on 8-OH-DPAT-induced hypothermia in mice (5 mg/kg) at intraperitoneal dosage of 4 mg/kg of compound after 60 mins; assay type: functional
Mus musculus [29] = assay: Effect on body temperature in mice at intraperitoneal dosage of 1 mg/kg, (compound administered 30 min before the test) after 30 min; assay type: functional
Mus musculus [30] = assay: Effect on body temperature in mice at intraperitoneal dosage of 2 mg/kg, (compound administered 30 min before the test) after 45 min; assay type: functional
Mus musculus [31] = assay: Effect on 8-OH-DPAT-induced hypothermia in mice (5 mg/kg) at intraperitoneal dosage of 4 mg/kg of compound after 15 mins; assay type: functional
Rattus norvegicus [32] = assay: Tested for the effect on 8-OH-DPAT-induced behavior in reserpine pretreated rat against forepaw treading at dosage of 16 mg/kg; assay type: functional
Rattus norvegicus [33] = assay: Tested for the induction of lower lip retraction (LLR) by the investigated compounds in rat at dosage of 16 mg/kg; assay type: functional
Mus musculus [34] = assay: Effect on 8-OH-DPAT-induced hypothermia in mice (5 mg/kg) at intraperitoneal dosage of 4 mg/kg of compound after 30 mins; assay type: functional
Mus musculus [35] = assay: Effect on 8-OH-DPAT-induced hypothermia in mice (5 mg/kg) at intraperitoneal dosage of 4 mg/kg of compound after 45 mins; assay type: functional
Rattus norvegicus [36] = assay: Tested for the effect on 8-OH-DPAT-induced behavior in reserpine pretreated rat against flat body posture at dosage of 16 mg/kg; assay type: functional
Mus musculus [37] = assay: Effect on 8-OH-DPAT-induced hypothermia in mice (5 mg/kg) at intraperitoneal dosage of 1 mg/kg of compound after 15 mins; assay type: functional
Mus musculus [38] = assay: Effect on body temperature in mice at intraperitoneal dosage of 4 mg/kg, (compound administered 30 min before the test) after 45 min; assay type: functional
Mus musculus [39] = assay: Effect on 8-OH-DPAT-induced hypothermia in mice (5 mg/kg) at intraperitoneal dosage of 2 mg/kg of compound after 60 mins; assay type: functional

- Ki [3]: 1040 nM
- Selectivity (Rattus norvegicus [12]): 69
- Ki [20]: 15 nM
SMILES: COc1ccccc1N1CCN(CCCn2nnc3ccccc32)CC1
- Delta t (Mus musculus [1]): 0.4 °C
- Behavioral score (Rattus norvegicus [2]): 5.8
- Delta t (Mus musculus [4]): 0.4 °C
- Delta t (Mus musculus [5]): 0.1 °C
- LLR score (Rattus norvegicus [6]): 1.1
- Delta t (Mus musculus [7]): 0 °C
- Behavioral score (Rattus norvegicus [8]): 8
- Behavioral score (Rattus norvegicus [9]): 13.4
- Delta t (Mus musculus [10]): 1.1 °C
- LLR score (Rattus norvegicus [11]): 0.7
- LLR score (Rattus norvegicus [13]): 0
- Delta t (Mus musculus [14]): 0.6 °C
- Behavioral score (Rattus norvegicus [15]): 3.7
- LLR score (Rattus norvegicus [16]): 0.1
- LLR score (Rattus norvegicus [17]): 0.9
- Delta t (Mus musculus [18]): 0.1 °C
- Delta t (Mus musculus [19]): 0.1 °C
- Delta t (Mus musculus [21]): 0.4 °C
- LLR score (Rattus norvegicus [22]): 2.3
- Delta t (Mus musculus [23]): 0.3 °C
- Delta t (Mus musculus [24]): 0.1 °C
- Delta t (Mus musculus [25]): 0.2 °C
- Delta t (Mus musculus [26]): 0.7 °C
- Delta t (Mus musculus [27]): 0.2 °C
- Delta t (Mus musculus [28]): 0.1 °C
- Delta t (Mus musculus [29]): 0 °C
- Delta t (Mus musculus [30]): 0.1 °C
- Delta t (Mus musculus [31]): 0.3 °C
- Behavioral score (Rattus norvegicus [32]): 2.6
- LLR score (Rattus norvegicus [33]): 0.6
- Delta t (Mus musculus [34]): 0.1 °C
- Delta t (Mus musculus [35]): 0 °C
- Behavioral score (Rattus norvegicus [36]): 6.1
- Delta t (Mus musculus [37]): 1.5 °C
- Delta t (Mus musculus [38]): 0.2 °C
- Delta t (Mus musculus [39]): 0.1 °C
